Each structure is given as a SMILES string.

One assay has as its target T1, hSSTR5 (Homo sapiens, UniProt P35346).
T1 construct: expressed in transfected cells; host or cells: CHO cells co-expressing Gα16 (hSSTR5-CHO-Gα16)
Nature of the assay: SSTR5 antagonistic activity in vitro by calcium flow detection (hSSTR5-CHO-Gα16 cells). It is filed as cell-based. The settings on record: for IC50: hSSTR5-CHO-Gα16 cells, 100 nM Somatostatin-14 agonist, Fluo-4 fluorescence 525 nm; for SSTR5 antagonistic activity (in words): summary of Table 1. The source says:
(§1) Testing SSTR5 antagonistic activity in vitro by Calcium flow detection method Experimental principle: After the receptor binds to the ligand and is activated, it can cause the activation of Gα16 protein, which further activates phospholipase C(PLC) to produce IP3 and DAG. IP3 can bind to the IP3 receptors on the endoplasmic reticulum and mitochondria in the cell, thereby causing the release of intracellular calcium. Therefore, measuring the changes in intracellular calcium can be used in the method to detect the activation state of hSSTR5. Fluo-4/AM is a calcium fluorescent probe indicator used to measure calcium ions. As a non-polar lipid-soluble compound, after it enters the cell, the AM group therein dissociates, and Fluo-4 is released under the action of cellular lipase; because Fluo-4 is a polar molecule and is not easy to pass through the lipid bilayer membrane, it can keep Fluo-4 in the cell fora longtime. Finally, the level of Ga protein activation can be reflected by measuring the intensity of the excited fluorescence. Somatostatin, an agonist of SSTR5, can activate SSTR5 receptors and greatly increase the calcium flow response. The SSTR5 antagonist to be tested can inhibit the agonist activity of the SSTR5 receptor and reduce the calcium increased flow response of the receptor stimulated by the agonist.
(§2) • (1) The hSSTR5-CHO-Gα16 and mSSTR5-CHO-Gα16 cell lines stably expressing hSSTR5 or mSSTR5 receptors were seeded at a density of 30,000/well in a 96-well plate and cultured in a 37° C. incubator overnight. • (2) The cells was aspirated off the culture medium, added with freshly prepared dye at 40 μL/well, and incubated in a 37° C. incubator for 45 minutes. • (3) After the dye was aspirated and discarded, the cells were washed with freshly prepared calcium buffer and the culture medium was replaced with 50 μL of calcium buffer. • (4) The SSTR5 agonist Somatostatin-14 was diluted and mixed evenly with calcium buffer. • (5) Detection was performed using a Flextation instrument. Starting from the 15th second, 25 μL of the pre-prepared agonist was automatically added by the instrument, and the fluorescence value at 525 nm was read.

The target in a further assay is T2, mSSTR5 (Mus musculus, UniProt O08858).
T2 construct: expressed in transfected cells; host or cells: CHO cells co-expressing Gα16 (mSSTR5-CHO-Gα16)
T2 sequence (O08858 1-362): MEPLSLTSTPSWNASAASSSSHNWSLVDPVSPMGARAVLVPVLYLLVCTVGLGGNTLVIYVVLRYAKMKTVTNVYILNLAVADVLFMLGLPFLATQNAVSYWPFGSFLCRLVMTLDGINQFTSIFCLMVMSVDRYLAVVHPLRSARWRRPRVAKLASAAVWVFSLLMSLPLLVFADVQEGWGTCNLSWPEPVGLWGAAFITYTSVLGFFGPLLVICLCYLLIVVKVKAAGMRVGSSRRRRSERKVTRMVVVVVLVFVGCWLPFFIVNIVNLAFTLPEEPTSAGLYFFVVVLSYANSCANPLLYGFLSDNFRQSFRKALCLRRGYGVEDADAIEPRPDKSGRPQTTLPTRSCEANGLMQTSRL
Nature of the assay: SSTR5 antagonistic activity in vitro by calcium flow detection (mSSTR5-CHO-Gα16 cells). In kind it is cell-based. The settings on record: 100 nM Somatostatin-14 agonist, Fluo-4 fluorescence 525 nm.
Source text: as §1, §2

T1 sequence (P35346 whole entry): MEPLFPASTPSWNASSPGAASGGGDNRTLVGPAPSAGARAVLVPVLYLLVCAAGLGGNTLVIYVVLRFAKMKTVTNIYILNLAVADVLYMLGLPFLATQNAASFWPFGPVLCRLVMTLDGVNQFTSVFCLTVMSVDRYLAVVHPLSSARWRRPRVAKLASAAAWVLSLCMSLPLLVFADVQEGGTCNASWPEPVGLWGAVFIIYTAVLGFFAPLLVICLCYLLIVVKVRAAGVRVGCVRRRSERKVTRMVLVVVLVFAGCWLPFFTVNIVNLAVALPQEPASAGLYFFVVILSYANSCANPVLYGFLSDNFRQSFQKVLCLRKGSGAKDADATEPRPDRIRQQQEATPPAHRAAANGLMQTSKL

Regarding `CCOc1cc(CN2CCC3(CCC(=O)N(c4ccc(C(=O)O)cc4)C3)CC2)cc(OCC)c1-c1ccc(F)cc1` [Example 1, 4-(9-((2,6-diethoxy-4′-fluoro-[1,1′-biphenyl]-4-yl)methyl)-3-oxo-2,9-diazaspiro[5.5]undec-2-yl)benzoic acid], on hSSTR5, the concentration for half-maximal inhibition (IC50) lay within 50 to 200 nM. As for `CCOc1cc(CN2CCC3C(CCN3c3ccc(C(=O)O)cc3)C2)cc(OCC)c1-c1ccc(F)cc1` (stereo not drawn) [Example 2, 4-(5-((2,6-diethoxy-4′-fluoro-[1,1′-biphenyl]-4-yl)methyl)octahydro-1H-pyrrolo[3,2-c]pyridin-1-yl)benzoic acid], at hSSTR5, the IC50 lay within 0.1 to 50 nM and the “SSTR5 antagonistic activity (in words)” value was “potent SSTR5 antagonistic activity”. Also, the IC50 on mSSTR5 is 50 to 200 nM. For the compound `CCOc1cc(CN2CCC3(CC2)CCN(c2ccc(C(=O)O)cc2)C(=O)C3)cc(OCC)c1-c1ccc(F)cc1` [Example 3, 4-(9-((2,6-diethoxy-4′-fluoro-[1,1′-biphenyl]-4-yl)methyl)-2-oxo-3,9-diazaspiro[5.5]undec-3-yl)benzoic acid], on hSSTR5, the concentration for half-maximal inhibition (IC50) lay in the range of 50 to 200 nM. On to `CCOc1cc(CN2CCC(C3CN(c4ccc(C(=O)O)cc4)C3)CC2)cc(OCC)c1-c1ccc(F)cc1` [Example 4, 4-(3-(1-((2,6-diethoxy-4′-fluoro-[1,1′-biphenyl]-4-yl)methyl)piperidin-4-yl)azetidin-1-yl)benzoic acid], for which the half-maximal inhibitory concentration (IC50) at hSSTR5 lay in the range of 50 to 200 nM. `CCOc1cc(CN2CCC3(CC2)CN(c2ccc(C(=O)O)cc2)CCO3)cc(OCC)c1-c1ccc(F)cc1` [Example 5]: at hSSTR5, the IC50 was 50 to 200 nM.

Consider `CCOc1cc(CN2CC3(CC(Nc4ccc(C(=O)O)cc4)C3)C2)cc(OCC)c1-c1ccc(F)cc1` [Example 6, 4-((2-((2,6-diethoxy-4′-fluoro-[1,1′-biphenyl]-4-yl)methyl)-2-azaspiro[3.3]heptane-6-yl)amino)benzoic acid], for which the IC50 on hSSTR5 is more than 200 nM. Take `CCOc1cc(CN2CC3(CC(=O)N(c4ccc(C(=O)O)cc4)C3)C2)cc(OCC)c1-c1ccc(F)cc1` [Example 7, 4-(2-((2,6-diethoxy-4′-fluoro-[1,1′-biphenyl]-4-yl)methyl)-7-oxo-2,6-diazaspiro[3.4]octane-6-yl)benzoic acid]: at hSSTR5, the half-maximal inhibitory concentration (IC50) was in the range of 0.1 to 50 nM and the “SSTR5 antagonistic activity (in words)” value was “potent SSTR5 antagonistic activity”. In addition, on mSSTR5, the IC50 fell in the range of 0.1 to 50 nM. With `CCOc1cc(CN2CC3(CC(=O)N(c4ccc(C(=O)O)cc4)C3)C2)c(C2CC2)cc1C` [Example 8, 4-(2-(2-cyclopropyl-5-ethoxy-4-methylbenzyl)-7-oxo-2,6-diazaspiro[3.4]octane-6-yl)benzoic acid], on hSSTR5, the half-maximal inhibitory concentration (IC50) lay in the range of 50 to 200 nM. Consider `CCOc1ccc(C2CC2)c(CN2CC3(CC(=O)N(c4ccc(C(=O)O)cc4)C3)C2)c1` [Example 9, 4-(2-(2-cyclopropyl-5-ethoxybenzyl)-7-oxo-2,6-diazaspiro[3.4]octyl-6-yl)benzoic acid], for which the half-maximal inhibitory concentration (IC50) on hSSTR5 lay in the range of 50 to 200 nM. Turning to `CCOc1cc(CN2CCC3(CC2)CN(c2ccc(C(=O)O)cc2)C3)cc(OCC)c1-c1ccc(F)cc1` [Example 10, 4-(7-((2,6-diethoxy-4′-fluoro-[1,1′-biphenyl]-4-yl)methyl)-2,7-diazaspiro[3.5]nonan-2-yl)benzoic acid], at hSSTR5, the IC50 was 0.1 to 50 nM and the “SSTR5 antagonistic activity (in words)” value was “potent SSTR5 antagonistic activity”. Further, the 50% inhibitory concentration (IC50) on mSSTR5 fell in the range of 0.1 to 50 nM. Take `CCOc1cc(CN2CCC3(CC2)CC(NS(=O)(=O)c2ccc(OC(F)(F)F)cc2)C3)cc(OCC)c1-c1ccc(F)cc1` [Example 11, N-(7-((2,6-diethoxy-4′-fluoro-[1,1′-biphenyl]-4-yl)methyl)-7-azaspiro[3.5]nonan-2-yl)-4-(trifluoromethoxy)benzenesulfonamide]: the half-inhibitory concentration (IC50) fell in the range of 50 to 200 nM on hSSTR5 and 0.1 to 50 nM on mSSTR5. `CCOc1cc(CN2CCN(C3CCN(S(=O)(=O)c4ccc(OC(F)(F)F)cc4)CC3)CC2)cc(OCC)c1-c1ccc(F)cc1` [Example 12, 1-((2,6-diethoxy-4′-fluoro-[1,1′-biphenyl]-4-yl)methyl)-4-(1-((4-(trifluoromethoxy)phenyl)sulfonyl)piperidin-4-yl)piperazine]: the IC50 at hSSTR5 and at mSSTR5 was 0.1 to 50 nM in each case. Further, the “SSTR5 antagonistic activity (in words)” value on hSSTR5 is “potent SSTR5 antagonistic activity”. In the case of `CCOc1cc(CN2CCC(N3CCN(S(=O)(=O)c4ccc(OC(F)(F)F)cc4)CC3)CC2)cc(OCC)c1-c1ccc(F)cc1` [Example 13], the IC50 at hSSTR5 was more than 200 nM. As to `CCOc1cc(CN2CCN(C3CCN(S(=O)(=O)c4ccc(C(=O)O)cc4)CC3)CC2)cc(OCC)c1-c1ccc(F)cc1` [Example 15, 4-((4-(4-((2,6-diethoxy-4′-fluoro-[1,1′-biphenyl]-4-yl)methyl)piperazin-1-yl)piperidin-1-yl)sulfonyl)benzoic acid], at hSSTR5, the half-inhibitory concentration (IC50) was more than 200 nM.

Turning to `CCOc1cc(CN2CCN(S(=O)(=O)c3ccc(OC(F)(F)F)cc3)CC2)cc(OCC)c1-c1ccc(F)cc1` [Example 16, 1-((2,6-diethoxy-4′-fluoro-[1,1′-biphenyl]-4-yl)methyl)-4-((4-(trifluoromethoxy)phenyl)sulfonyl)piperazine], the IC50 on hSSTR5 was more than 200 nM. Same read-out and setting: in the case of `CCOc1cc(CN2CCN(S(=O)(=O)c3ccc(C(=O)O)cc3)CC2)cc(OCC)c1-c1ccc(F)cc1` [Example 17, 4-((4-((2,6-diethoxy-4′-fluoro-[1,1′-biphenyl]-4-yl)methyl)piperazin-1-yl)sulfonyl)benzoic acid] it was 50 to 200 nM. Regarding `CCOc1cc(CN2CCC3(CC2)CN(c2ccc(C(=O)O)cc2)C3=O)cc(OCC)c1-c1ccc(F)cc1` [Example 18, 4-(7-((2,6-diethoxy-4′-fluoro-[1,1′-biphenyl]-4-yl)methyl)-1-oxo-2,7-diazaspiro[3.5]nonan-2-yl)benzoic acid], at hSSTR5, the IC50 was in the range of 0.1 to 50 nM and the “SSTR5 antagonistic activity (in words)” value is “potent SSTR5 antagonistic activity”.

Turning to `CCOc1cc(CN2CCC3(CC2)CN(c2ccc(C(=O)O)cc2)C3)c(C2CC2)cc1C` [Example 19, 4-(7-(2-cyclopropyl-5-ethoxy-4-methylbenzyl)-2,7-diazaspiro[3,5]nonan-2-yl)benzoic acid], on hSSTR5, the IC50 lay within 0.1 to 50 nM and the “SSTR5 antagonistic activity (in words)” value is “potent SSTR5 antagonistic activity”.

For `CCOc1cc(CN2CCC3(CC2)CN(c2ccc(C(=O)O)cc2)C3)c(-c2ccc(F)c(F)c2F)cc1C` [Example 20, 4-(7-((4-ethoxy-2′,3′,4′-trifluoro-5-methyl-[1,1′-biphenyl]-2-yl)methyl)-2,7-diazaspiro[3,5]nonan-2-yl)benzoic acid], the concentration for half-maximal inhibition (IC50) on hSSTR5 lay within 50 to 200 nM. Turning to `CCOc1cc(CN2CC3(CC(=O)N(c4ccc(C(=O)O)cc4)C3)C2)ccc1F` [Example 21, 4-(2-(3-ethoxy-4-fluorobenzyl)-7-oxy-2,6-diazaspiro[3.4]octan-6-yl)benzoic acid], on hSSTR5, the IC50 is more than 200 nM. As for `CCOc1cc(CN2CC3(CC(=O)N(c4ccc(C(=O)O)cc4)C3)C2)ccc1C` [Example 22, 4-(2-(3-ethoxy-4-methylbenzyl)-7-oxy-2,6-diazaspiro[3.4]octan-6-yl)benzoic acid], the IC50 on hSSTR5 was more than 200 nM. For the compound `O=C(O)c1ccc(N2CC3(CC2=O)CN(Cc2cc(C(F)(F)F)ccc2C2CC2)C3)cc1` [Example 23, 4-(2-(2-cyclopropyl-5-(trifluoromethyl)benzyl)-7-oxo-2,6-diazaspiro[3.4]octyl-6-yl)benzoic acid], on hSSTR5, the half-inhibitory concentration (IC50) was more than 200 nM. As for `CCOc1cc(CN2CCC3(CC2)CN(c2ccc(C(=O)O)cc2)C3)ccc1F` [Example 24, 4-(7-(3-ethoxy-4-fluorobenzyl)-2,7-diazaspiro[3.5]nonan-2-yl)benzoic acid], at hSSTR5, the IC50 is 50 to 200 nM.

As for `CCOc1cc(CN2CCC3(CC2)CN(c2ccc(C(=O)O)cc2)C3)ccc1N(CC)CC` [Example 25, 4-(7-(4-(diethylamino)-3-ethoxybenzyl)-2,7-diazaspiro[3.5]nonan-2-yl)benzoic acid], on hSSTR5, the IC50 was in the range of 50 to 200 nM. Still for that read-out and setting: in the case of `CCOc1cc(CN2CC3(CC(=O)N(c4ccc(C(=O)O)cc4)C3)C2)ccc1O` [Example 26, 4-(2-(3-ethoxy-4-hydroxybenzyl)-7-oxo-2,6-diazaspiro[3.4]octyl-6-yl)benzoic acid] it was more than 200 nM.

For orientation: IC50 means the midpoint of a concentration-inhibition curve.

The values are drawn from patent US20250066359A1, “SOMATOSTATIN RECEPTOR SUBTYPE 5 ANTAGONISTS, AND PHARMACEUTICAL COMPOSITION AND USE THEREOF” (SHANGHAI INSTITUTE OF MATERIA MEDICA, CHINESE ACADEMY OF …, priority 2021, published 2025).
